Laboratory results from US12138256B2, “Treatment of cardiopulmonary disorders” (Bayer Aktiengesellschaft, priority 2021, dated 2024).
Read-outs that look alike come from different tables or passages of the source.

What was measured:
[1] = Phase I single dose inhaled, inhaled + charcoal block, oral and intravenous: pharmacokinetics and lung deposition (C-4.3); type: in vivo, human; settings: for bioavailability / half-life: male, human, plasma; for half-life: read-out: elimination half-life (converted)
Experimental: Healthy white male subjects, aged 18 to 45 years with a body mass index (BMI) above/equal 18.5 and below/equal 29.9 kg/m^2 were treated in a clinical phase I study with a single inhaled dose of 1000 μg (nominal dose), a single inhaled dose of 1000 μg (nominal dose)+charcoal block, a single oral dose of 1000 μg and a single infusion over 2 h of 100 μg of example 4. As the bioavailability of an intravenous application is generally 100% per definition and therefore higher than in case of an oral or […] administration, the intravenous dose was carefully selected to be lower than the oral and inhaled dose to avoid higher plasma concentration resulting from a high IV dose and potential side effect, e.g. reduction in blood pressure or syncope. Therefore, 100 μg was selected for the IV dose in this investigation. Seven days washout period between treatments was applied. The subjects swallowed a solution for oral administration (20 ml comprising 1000 μg, see under D-2, table 50). The subjects received a solution as a single infusion over 2 hours (see under D-2 table 50). The subjects inhaled the drug powder from capsules (see under D-1, e.g. tables 17 and 20) inserted into a handheld inhalation device by one deep inhalative breath. After inhalation of the dry powder formulation of this drug, some parts of the nominal dose remain in the capsule and the device, the dose which reaches the body at the mouthpiece is called the emitted dose. The emitted dose can be calculated/determined as followed: nominal dose−(remains in the capsule+remains in the device). After inhalation of the dry powder, one part of the emitted dose enters the gastrointestinal tract (GIT) and is called the oral part of the emitted dose, the other part of the emitted dose which reaches the lung through the respiratory airways is called the lung dose and represents the lung deposited dose. As the lung is the target organ of the effect, the lung deposited dose must be quantified. Lung deposition can be indirectly estimated, by determining the part of the nominal dose which reaches the GIT and the remains in the capsule and the device. To investigate and determine lung deposition, the following investigations were done (see also FIG. 77): • 1—Inhaled application of a single dose of 1000 μg of the dry powder. • 2—Inhaled application of a single dose of 1000 μg of the dry powder in combination with oral administration of charcoal block. The charcoal block capped the oral absorption of GIT part of the dose, as example 4 completely adsorbed to charcoal block. This implies that the concentrations of example 4 measured reach the systemic circulation via the lung. • 3—Administration of a single oral dose of 1000 μg example 4 to determine the oral absorption. • 4—Administration of a 2 h infusion of example 4 to investigate the elimination.
Plasma concentrations of example 4 were measured after all different types of administrations, in addition the remains in the device and the capsule were measured after inhaled application. […] The longer terminal half-life after inhalation can be explained by the formation of a pulmonary depot of example 4 in the lungs from which the substance is continuously transferred to the circulatory system.
The emitted dose is calculated to be 720 μg, as the remains in the capsule were 160 μg and the remains in the device were 120 μg, see FIG. 79.

[2] = Phase I, healthy male subjects, 7 days inhalation: plasma concentrations over time (C-4.1); type: in vivo, human; settings: all doses administered
Experimental: Healthy White male subjects, aged 18 to 45 years and with a body mass index (BMI) above/equal 18.5 and below/equal 29.9 kg/m2 were treated in a clinical pharmacological phase I study on seven days with inhaled once daily doses of 480 μg or 1000 μg or 2000 μg (2 capsules of 1000 μg) (nominal dose) of dry powder formulations of example 2 or Placebo. The subjects inhaled the drug powder from capsules (see under D-1, e.g. tables 22 and 23) inserted into a handheld inhalation device by one deep inhalative breath. The dry powder formulation of the drug is dispersed into the airstream and fine particles are transported into the deep parts of the lung where it is intended to cause a vasodilation of the blood vessels in PH patients for a substantial reduction of increased blood pressure in the central pulmonary blood vessels in PAH patients or other subtypes of PH. This effect cannot be shown in subjects with healthy lungs. In addition inhaled drug causes a dilation of the bronchial airways and thus also improves disease states of lung diseases in PH patients with pathological bronchoconstriction. This effect was measured via bodyplethysmography as reduction of Specific Airway Resistance in healthy subjects. […]

Row | Structure (SMILES) | emitted dose ([1]; after inhalation of 1000 μg in humans) [µg] | oral part of the dose ([1]; inhaled 1000 μg) | bioavailability ([1]; inhaled or intranasal, 1000 μg, dry powder inhaled with charcoal (lung dose), read-out: absolute bioavailability) [%] | bioavailability ([1]; inhaled or intranasal, 1000 μg, dry powder inhaled without charcoal, read-out: absolute bioavailability) [%] | half-life ([1]; inhaled or intranasal, 1000 ug, inhaled 1000 μg with charcoal) [min] | half-life ([1]; inhaled or intranasal, 1000 ug, inhaled 1000 μg without charcoal) [min] | bioavailability ([1]; inhaled or intranasal, 1000 ug, read-out: relative bioavailability, inhaled with charcoal block to inhaled without) [%] | half-life ([1]; iv, 100 μg, intravenous, 100 μg infusion over 2 h) [min] | half-life ([1]; po, 1000 ug, oral, 1000 μg solution) [min] | persistence of measurable plasma concentration after first inhalation [2] [h]
1 | O=C(O)c1ccc(CCN(CCc2ccccc2OCc2ccc(-c3ccc(C(F)(F)F)cc3)cc2Cl)[C@H]2CCCc3nc(C(=O)O)ccc32)cc1 [example 4, (5S)-{[2-(4-Carboxyphenyl)ethyl][2-(2-{[3-chloro-4′-(trifluoromethyl)biphenyl-4-yl]methoxy}phenyl)-ethyl]amino}-5,6,7,8-tetrahydroquinoline-2-carboxylic acid] | 720 | approximately 13 % of the nominal dose | 16.3 | 18.8 | 966 | 906 | 86.9 | 15.6 | 266 | –
2 | O=C(O)c1ccc(CCN(CCc2ccccc2OCc2ccc(-c3ccc(C(F)(F)F)cc3)cc2Cl)[C@H]2CCCc3nc(C(=O)O)ccc32)cc1 [example 2, (5S)-{[2-(4-Carboxyphenyl)ethyl][2-(2-{[3-chloro-4′-(trifluoromethyl)biphenyl-4-yl]methoxy}phenyl)-ethyl]amino}-5,6,7,8-tetrahydroquinoline-2-carboxylic acid] | – | – | – | – | – | – | – | – | – | 48
